Measured values published in patent US11590119B2, “(S)-2-(1-(5-(cyclohexylcarbamoyl)-6-(propylthio)pyridin-2-yl)piperidin-3-yl)acetic acid for use in medicine” (University of Leeds, priority 2019, dated 2023).
Values belong to the compound of their own block, whether it stands above or below them.

Experiments:
[1] = tested on: HUVEC tubule formation; assay: HUVEC tubule formation, in vitro model of angiogenesis; assay type: cell-based, human; settings: IL-1β 10 ng/ml; cortisone 200 nM; AZD4017 1 μM with cortisone; biological n=1
[2] = tested on: 11β-HSD1 mRNA expression; assay: 11β-HSD1 mRNA expression in cultured human dermal fibroblasts; assay type: cell-based; settings: HDFs in culture; cortisol 24 h; IL-1β 10 ng/mL; cortisol 100 nM in combination
[3] = molecular target: T1, 11β-HSD1 (Homo sapiens, UniProt P28845); assay: 11β-HSD1 activity (conversion of cortisone to cortisol) in primary human dermal fibroblasts; assay type: cell-based; parameters: from tissue; host or cells: adipose tissue of abdominally obese healthy adult male volunteers
Experimental: FIG. 5: 11β-HSD1 activity in primary human dermal fibroblasts.
In order to investigate the effects, prevalence and relevance of 11β-HSD1 in human skin and diabetic wound healing the effects of the proinflammatory cytokine, IL-1β on human dermal fibroblasts (HDFs) in culture was assessed in the preclinical setting. […] In these experiments RU486 (mifepristone) was used as a competitive cortisol antagonist.

[4] = tested on: 11β-HSD; settings: mice, topical treatment, oral corticosterone; cited from earlier work
[5] = tested on: MMP7 and TGM2 expression; assay: Protein profiling (Sciomics) and RNAseq of primary human dermal fibroblasts; assay type: cell-based; settings: HDFs, IL-1β+cortisone+AZD4017, n=3
Description: Protein profiling (Sciomics) conducted on primary human dermal fibroblasts (HDF) treated with vehicle, IL-1β, IL-1β+cortisone or IL-1β+cortisone+the selective 11β HSD1 inhibitor AZD4017 (n=3, same HDF as for RNAseq experiments) identified a number of proteins regulated by 11β-HSD1. […] The proteins found to be regulated by 11β-HSD1 include MMP7 and TGM2. […] Regulation of MMP7 by GC has to the best of our knowledge not previously been reported (Velasco, J., et al., J Biol Chem, 2011. 286(29): p. 26016-27).

[6] = Phase II trial in T2DM: adverse effects; assay type: in vivo, human; settings: T2DM patients, 400 mg twice daily oral, 35 days
Description: AD4017 is thus identified for the first time as a safe and effective agent with therapeutic and prophylactic potential for the treatment of wound healing in patient populations susceptible to the development of chronic wounds and the complications associated therewith.

[7] = molecular target: T1, 11β-HSD1; settings: cited from earlier work
[8] = tested on: skin wounds; assay: Phase II trial in T2DM: wound gap diameter of punch biopsy wounds by OCT; assay type: in vivo, human
Description: FIG. 13: Wound healing in placebo (PBO) and AZD4017 (AZD) treated cohorts as evidenced by wound gap diameter of wounds inflicted at days 0 and 28 at days 2 and 30, respectively. Confidence intervals for measurements are provided to right.
Both biopsies from visit 1 (day 0) and two biopsies from visit 4 (day 28) were imaged by OCT at Visits 2, 3, 5 and 6 as appropriate. Optical coherence tomography OCT (Greaves, N. S., et al., Br J Dermatol, 2014. 170(4): p. 840-50) has proven a useful tool for the evaluation of wound re-epithelialization. OCT uses light to capture sub-micrometre resolution, three-dimensional images from within biological tissue (e.g. skin). The method is based on low-coherence interferometry, typically employing near-infrared light. The use of relatively long wavelength light allows it to penetrate 1-2 mm into the tissue. In addition to wound diameter, collected images capture information on vascularization.
The procedure takes approximately 2 minutes using a small probe applied to the skin. The procedure is non-invasive and pain-free. Image files (including enrolment number, visit number and date) were stored on the OCT machine until the end of the trial, then transferred to a secure server, compiled, analysed and values for wound diameter entered into the case report form (CRF).
The initial wounds created by puncture at days 0 and 28, respectively, were 3 mm in diameter. Treatment with AZD4017 (400 mg, twice daily oral) was initiated on day 0 and maintained for 35 days.
Thus administration of AZD4017 […] delivered a significant improvement in the rate of wound healing.

[9] = tested on: fibroblasts and endothelial cell co-culture; assay: Angiogenesis co-culture assay with HDF conditioned media (tube length, branch points); assay type: cell-based, human; settings: conditioned media of HDFs treated with IL-1β+200 nM cortisone+1 μM AZD4017, 7 days in culture
Experimental: In order to further study the effects of AZD4017 on angiogenesis in a quantitative manner, a further related experiment to that described above was performed. In this model in vitro cultured human dermal fibroblasts were treated with a) 10 ng/ml IL-1β, b) IL-1β+100 nM cortisol, c) IL-1β+200 nM cortisone or d) IL-1β+cortisone+1 μM AZD4017 (selective 11β-HSD1 inhibitor).

[10] = tested on: stratum corneum; assay: Phase II trial in T2DM: N tapes, tape stripping to a pre-specified TEWL; assay type: in vivo, human; settings: after 4 weeks treatment
Experimental: FIG. 16: The number of tapes (N tapes) required to achieve the equivalent amount of barrier disruption in the placebo (PBO) and AZD4017 (AZD) treated arms at day 28. Confidence intervals are presented to the right.
A further way in which the skin quality of patients treated with AZD4017 was evaluated involved stripping of the skin with adhesive patches to achieve a consistent damage level as established by transepidermal water loss (TEWL), a measure of the permeability of the skin barrier.
In more detail, evaporation of water from the skin occurs as part of normal skin metabolism. As barrier function is disrupted, water loss increases. The Tewameter® TM 300 probe (commercially available from Courage and Khazaka Electronic GmbH, 50829 Köln, Germany) measures the density gradient of the water evaporation from the skin by two pairs of sensors (temperature and relative humidity) inside a hollow cylinder. […]
Adhesive patches (D-Squame® tapes, from D-Squame, Clinical and Derm LLC, Dallas, Tex., www.clinicalandderm.com) were used to gently remove the stratum corneum layers to a pre-specified TEWL (trans-epidermal water loss) rate from the lower inner forearm at Visits 1 and 4. […] At day, after 4 weeks treatment, the number of tapes required to induce the same level of damage on the skin as evaluated by this technique was 43% higher in the 11β-HSD1 inhibitor treated cohort than in the placebo arm.

[11] = molecular target: T1, 11β-HSD1; settings: abdominally obese healthy adult male volunteers, daily oral dosing
Experimental: In more detail, a Phase I study using AZD4017 in abdominally obese healthy adult male volunteers involved an assessment of 11β-HSD1 inhibition in human adipose tissue as a function of time following daily oral dosing of the inhibitor (11β-HSD1 activity was assessed by an assay measuring the conversion of cortisone to cortisol in adipose tissue samples). […] Tachyphylaxis was also investigated with an additional AstraZeneca 11β-HSD1 inhibitor, AZD8329, from a different chemical series (see Morentin Gutierrez et al, Br J Pharmacol […], 172, 4806-16).
FIG. 1: Conversion of ^3H cortisone [20 nM] to ^3H cortisol (%/100 mg adipose tissue) after repeated dosing of AZD4017.

[12] = tested on: epidermis; assay: Phase II trial in T2DM: epidermal thickness by OCT; assay type: in vivo, human; settings: day 35, 400 mg twice daily
Experimental: FIG. 14: Epidermal thickness (μm) in the placebo (PBO) and AZD4017 (AZD) treated arms after 35 days.
As noted above, glucocorticoid therapy is known to cause skin thinning and dispose patients to the development of chronic wounds. Epidermal thickness was measured by OCT at Visits 1 (day 0) and 6 (day 35, i.e. after 35 days of treatment with 400 mg AZD4017, twice daily). Results from these measurements are presented alongside the confidence interval in the measurements at day 35.

[13] = tested on: skin wounds; assay: Phase II trial in T2DM: deep learning segmentation of OCT wound images; assay type: in vivo, human; settings: day 30, 2 days after wounding at day 28, p<0.05
Description: FIG. 17: 2D OCT image of wound segmented into compartments. i) void; ii) intact tissue; iii) wound collagen; iv) wound with sponginess morphology; v) neoepidermis; vi) clot & vii) blood (in liquid form).
FIG. 18: Figure illustrating the improved amount of A) neoepidermis and B) clot volume two days after wounding and after 30 days of treatment with AZD4017 (AZD) and placebo (PBO).
To further understand the effects of AZD4017 in the wound healing process a deep learning based image processing method was developed for recognising different sub-tissue components from optical coherence tomography (OCT) images. The method was based on a u-net convolutional neural network (see Ronneberger O., Fischer P., Brox T. (2015) U-Net: Convolutional Networks for Biomedical Image Segmentation. In: Navab N., Hornegger J., Wells W., Frangi A. (eds) Medical Image Computing and Computer-Assisted Intervention—MICCAI 2015. MICCAI 2015. Lecture Notes in Computer Science, vol 9351. Springer, Cham. https://doi.org/10.1007/978-3-319-24574-4_28). […]
Further morphological image processing was then performed to the labelled image as post processing processes to show meaningful continuous regions of sub-tissue components. As a result, the area (mm^2) of each sub-tissue components could be calculated. In addition the volume (mm^3) of each sub-tissue components across 120 slices of tissues were also determined. […]

T1 sequence (P28845 whole entry): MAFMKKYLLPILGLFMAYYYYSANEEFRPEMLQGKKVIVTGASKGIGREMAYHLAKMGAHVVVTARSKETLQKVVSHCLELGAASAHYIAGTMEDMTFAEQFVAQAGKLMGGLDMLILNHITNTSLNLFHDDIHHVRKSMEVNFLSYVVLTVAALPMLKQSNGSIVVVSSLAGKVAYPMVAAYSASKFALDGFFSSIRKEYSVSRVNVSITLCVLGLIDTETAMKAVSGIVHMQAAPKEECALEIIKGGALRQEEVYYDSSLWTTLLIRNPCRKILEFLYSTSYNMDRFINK

Compound: C[C@]12CCC(=O)C=C1CC[C@@H]1[C@@H]2C(=O)C[C@@]2(C)[C@H]1CC[C@]2(O)C(=O)CO [cortisone, reference compound]
tubule formation [1]: blocked

Compound: C[C@]12CCC(=O)C=C1CC[C@@H]1[C@@H]2[C@@H](O)C[C@@]2(C)[C@H]1CC[C@]2(O)C(=O)CO [cortisol, reference compound]
increase in 11β-HSD1 mRNA expression [2]: 6 fold

inhibition of conversion of E to F ([3]; 25 μM, 18 h, HDFs pretreated with IL-1β and cortisol): did not significantly inhibit
Compound: CC1(C)[C@@H](OC(=O)CCC(=O)O)CC[C@]2(C)[C@H]3C(=O)C=C4[C@@H]5C[C@@](C)(C(=O)O)CC[C@]5(C)CC[C@@]4(C)[C@]3(C)CC[C@@H]12 [carbenoxolone, reference compound]
effect on delay in wound healing caused by corticosteroid excess [4]: reverse the delay in wound healing

Compound: IL-1β: interleukin 1β (pro-inflammatory cytokine)
tubule formation [1]: stimulate tubule formation
increase in conversion of cortisone (E) to cortisol (F) relative to untreated HDFs ([3]; 24 h IL-1β pretreatment, conversion over 48 h): 6 fold
increase in 11β-HSD1 mRNA expression [2]: 10 fold

effect on 11β-HSD1 enzyme activity and production of F (cortisol) ([3]; 1 μM, over 18 h, HDFs pretreated with IL-1β and cortisol): completely blocked the enzyme activity
Compound: CCCSc1nc(N2CCC[C@@H](CC(=O)O)C2)ccc1C(=O)NC1CCCCC1 [AZD4017, (S)-2-(1-(5-(cyclohexylcarbamoyl)-6-(propylthio)pyridin-2-yl)piperidin-3-yl)acetic acid]
MMP7 protein and gene expression [5]: downregulated MMP7
TGM2 protein and gene expression [5]: stimulate TGM2 protein and gene expression
adverse effects in the treatment cohort [6]: no significant adverse effects
cortisol levels in the adipose tissues ([7]; after 9 days dosing, versus before dosing): higher than those measured before dosing commenced
inhibition of 11β-HSD1 activity in adipose tissue ([7]; after 9 days of treatment, as quoted from Freude): not observed after 9 days of treatment
inhibition of 11β-HSD1 activity in adipose tissue vs baseline ([7]; after single doses, as quoted from Freude): 50%
mean wound gap diameter ([8]; day 2, 3 mm wound inflicted at day 0, 400 mg twice daily oral from day 0): 0.98 mm
improvement in the extent of healing relative to placebo arm ([8]; day 2, wound inflicted at day 0): 35%
mean wound gap ([8]; day 30, 3 mm wound inflicted at day 28, after 4 weeks pretreatment): 0.67 mm
improvement in the extent of healing relative to placebo arm ([8]; day 30, wound inflicted at day 28): 55%
IL-1β stimulated tube formation (tube length, number of branch points) [9]: decreased the negative effects of cortisone/cortisol
number of tapes required to induce the same level of damage, higher than in the placebo arm [10]: 43%
tubule formation [1]: the same IL-1β stimulated tubule formation as observed in the absence of cortisone
11β-HSD1 activity in adipose tissue relative to baseline ([11]; day 1): reduced 11β-HSD1 activity relative to baseline
net 11β-HSD1 activity in adipose tissue post-dose versus baseline level on day 0 ([11]; day 9 post dose): still greater than the baseline level on day 0
epidermal depth greater than the placebo arm [12]: 5.58 μm
volume of clots in the wound site compared to placebo [13]: statistical significant increases
volume of neoepidermis in the wound site compared to placebo [13]: statistical significant increases
